Data on four compounds can be found in patent publication US9821173B2, “Anti-cancer agents and methods of use” (Case Western Reserve University, priority 2013, dated 2017).

For one data set, the system named is HeLa. Kind of data set: Cell proliferation assay (cell-titer blue). In kind it is cell-based. Particulars: for IC50: cell viability, cell-titer blue, up to 48 hours. On the procedure: (§1) HeLa, MCF-7, HCT-116, and CEM-C7 were obtained from the American Type Culture Collection (Manassas, Va., USA). All adherent cell lines were maintained in Dulbecco's modified Eagle's medium (Mediatech) with 100 U/ml penicillin (Invitrogen), 100 μg/ml streptomycin (Invitrogen), 0.25 μg/ml amphotericin B (Invitrogen), and 10% fetal bovine serum (USA Scientific) and incubated at 37° C. with 5% CO2. CEM cells were maintained in RPMI-1640 media supplemented with 100 U/ml penicillin, 100 μg/ml streptomycin, 0.25 μg/ml amphotericin B, and 10% fetal bovine serum and incubated at 37° C. with […].
(§2) Cells were plated at a density of 7,000-13,000/well in 200 μl of media overnight in a 96-well plate. Each (phosphine)gold(I)-indole was added to wells in a dose-dependent manner (0.01-100 μM). Cells were treated with compounds for variable time periods (8-48 hours). With adherent cell lines, medium was removed from the wells and then 100 μl of fresh medium was added into each well followed by the addition of 20 μl of cell titer-blue reagent (Promega). Cells were incubated with reagent for 1-4 hrs and the optical density of samples was read at 560 nm using a microplate reader. The background absorbance of dye with media was subtracted from each sample. Cell viability was then normalized against cells treated with DMSO. IC50 values were obtained using a fit of the data to Equation 1: Y=100%/[1+(IC50/Inhibitor)] (1)
(§3) where y is the fraction of viable cells, IC50 is the concentration of inhibitor that inhibits 50% cell growth, and Inhibitor is the concentration of compound tested.
(§4) The cellular effects of these (phosphine)gold(I) indoles were tested against several cancer cell lines including HeLa (cervical cancer), MCF-7 (breast cancer), HCT-116 (colon cancer), and CEM-C7 (leukemia). The dose-dependency of each modified indole on cell viability was assessed using a cell-titer blue assay as previously described. In these experiments, cells were exposed to variable concentrations of each (phosphine)gold(I) indole (0.01-100 μM) for up to 48 hours and then assessed for viability.

The subject of the next data set is CEM-C7. Kind of data set: Cell proliferation / cytotoxicity assay. The conditions noted are these: for IC50: cell viability, cell-titer blue, up to 48 hours. In kind it is cell-based. On the procedure:
as §1, §2, §3, §4
Defining this mechanism of cell death is important as necrosis can cause various side-effects including septic shock and kidney failure that can obviously compromise patient health.

The next data set concerns the target BSA (Bos taurus, UniProt P02769). Kind of data set: Reactivity of Au(I)-compounds with BSA thiol (DTNB -SH titer). More on the design: species or system bovine. The conditions noted are these: 120 μM compound, Au(I)/BSA ratios up to 4:1, one hour, 37° C., PBS. On the procedure: PBS was used as the reaction buffer.
We tested the ability of various Au(I)-complexes to non-selectively react with BSA. […] P2 resin was effective in retaining Au(I)-containing compounds including compound 3 and compound 4. However, BSA was not retained in the resin as >95% of the BSA loaded into the Penefsky column is recovered in the eluant. […] Values obtained from reactions containing BSA incubated with the various Au(I) complexes were compared to identical reactions containing BSA alone and eluted through Penefsky columns.

The subject of the next data set is HCT-116. Kind of data set: Cell proliferation assay (cell-titer blue). In kind it is cell-based. The conditions noted are these: cell viability, up to 48 hours, read-out: IC50 HCT116. On the procedure:
as §1, §2, §3, §4

The test system of the next data set is MCF-7. Kind of data set: Cell proliferation assay (cell-titer blue). The conditions noted are these: cell viability, up to 48 hours. In kind it is cell-based. On the procedure: as §1, §2, §3, §4
A further data set concerns HeLa cells. Particulars: HeLa, data not shown. On the procedure:
HeLa cells were plated at a density of 250,000-300,000 cells/mL. After 24 hr cells, the cells were irradiated in a dose dependent manner (0-4 Gy) using a ^137Cs gamma source. After treatment, the cells were trypsinized and plated at a density between 300-4000 cells in 60 mm dishes. Cells were allowed to grow colonies (1 colony≧50 cells) for 10-14 days, stained with 0.25% crystal violet, and manually counted to measure the number of colonies. Survival fractions were normalized against positive controls (colony formation with no radiation) and plotted as the log percent survival versus dose of radiation. Each experiment was performed an average of four (4) times with cells propagated on several different days.
In this case, we measured the effects of combining these (phosphine)gold(I) indoles with ionizing radiation (IR), a widely used therapy used to treat solid tumors. […] After this time frame, media containing the (phosphine)gold(I) indole was removed and replaced with fresh media. The cells were then irradiated in a dose-dependent fashion from 0 to 6 Gy. Cell viability was assessed using a clonogenic assay that measures colony formation and thus accurately defines the cytotoxic effects of IR exposure. […] The initial linear phase is particularly important as this reflects repair of non-lethal damage inflicted by clinically-relevant doses of IR (˜2 Gy).

Sequence of BSA (P02769 25-607): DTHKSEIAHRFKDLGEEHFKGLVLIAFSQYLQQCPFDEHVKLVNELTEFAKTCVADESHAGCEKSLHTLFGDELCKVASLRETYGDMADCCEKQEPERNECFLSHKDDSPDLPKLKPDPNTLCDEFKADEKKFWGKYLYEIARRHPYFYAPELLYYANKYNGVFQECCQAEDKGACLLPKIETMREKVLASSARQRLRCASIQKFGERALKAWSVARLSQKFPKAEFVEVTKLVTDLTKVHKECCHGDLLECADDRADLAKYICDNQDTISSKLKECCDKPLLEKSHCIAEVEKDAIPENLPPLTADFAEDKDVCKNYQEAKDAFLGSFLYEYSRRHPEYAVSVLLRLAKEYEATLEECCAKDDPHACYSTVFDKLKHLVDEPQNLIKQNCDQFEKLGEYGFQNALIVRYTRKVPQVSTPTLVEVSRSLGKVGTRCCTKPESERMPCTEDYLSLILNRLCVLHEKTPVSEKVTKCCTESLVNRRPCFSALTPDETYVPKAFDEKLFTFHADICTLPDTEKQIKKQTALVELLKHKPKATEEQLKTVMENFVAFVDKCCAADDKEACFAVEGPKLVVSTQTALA

Regarding `[Au+].[Br-].c1ccc(P(c2ccccc2)c2ccccc2)cc1` [BrAuPPh3, reference compound], in the data set with HeLa (up to the highest concentration of 100 μM), the “anti-cancer (cytostatic or cytotoxic) effects” value is on record as “does not produce significant cytostatic or cytotoxic effects”. Further, in the data set on CEM-C7 (CEM-C7 cells), the “mechanism of cell death (propidium iodide uptake)” value was “causes necrosis”. Besides, the LD50 in the data set with CEM-C7 (cytotoxic effect, leukemia cell line CEM-C7) was 0.22 ± 0.05 µM. The “reactivity with BSA (relative thiol content, -SH titer)” value on BSA is recorded as “facile interactions”.

Broadly, the IC50 is the concentration needed to halve the response being measured. For `CC(C)(C)OC(=O)n1ccc2c[c]([Au-][P+](c3ccccc3-c3ccccc3)(C3CCCCC3)C3CCCCC3)ccc21` [Compound 5, 5-{[1,1′-biphenyl]-2-yldicyclohexylphosphine aurate(I)}-tert-butyl H-indole-1-carboxylate], the IC50 with HCT-116 is 3.4 µM; with MCF-7, 2.3 µM; in the data set with HeLa, 2.4 µM; in the data set with CEM-C7 it was 2.1 µM.

Consider `Cn1ccc2c[c]([Au-][P+](c3ccccc3-c3ccccc3)(C3CCCCC3)C3CCCCC3)ccc21` [Compound 7, 5-{[1,1′-biphenyl]-2-yldicyclohexylphosphine aurate(I)}-1-methyl-1H-indole], for which the half-inhibitory concentration (IC50) in the data set with HCT-116 was 0.38 µM; in the data set on MCF-7, 3.25 µM; in the data set on HeLa, 0.46 µM; in the data set with CEM-C7, 1.43 µM. In addition, the “enhancement of the cell killing effects of IR” value with HeLa cells is listed as “do not enhance the cell killing effects of IR”.

On to `CC(C)(C)C(=O)OCn1ccc2c[c]([Au-][P+](c3ccccc3-c3ccccc3)(C3CCCCC3)C3CCCCC3)ccc21` [Compound 6, 5-{[1,1′-biphenyl]-2-yldicyclohexylphosphine aurate(I)}-(1H-indol-1-yl)methyl pivalate], for which the IC50 was 1.8 µM with HCT-116, 0.96 µM in the data set on MCF-7, 0.66 µM in the data set with HeLa and 0.42 µM in the data set with CEM-C7. Also, the “enhancement of the cell killing effects of IR” value with HeLa cells was “do not enhance the cell killing effects of IR”.
